Reference: patent US20120142715A1, “POLYMORPH OF [4,6-BIS(DIMETHYLAMINO)-2-(4-BENZYL)PYRIMIDIN-5-YL]” (BOEHRINGER INGELHEIM INTERNATIONAL GMBH, priority 2009, published 2012)
Where a name gives a salt, the structure may show the parent alone.

Columns and labels:
[1] = XRPD analysis of crystallinity after heat-treatment; type: physicochemical; conditions: for change in crystallinity (XRPD) as a result of heat treatment: heated at 80° C. under reduced pressure for 15 hours, vs sample kept at about 25° and atmospheric pressure
Experimental: Effect of heat-treatment on crystallinity: Applicants carried out an XRPD analysis of samples of the Type I and Type II ethylenediamine salts exposed to elevated temperature (80° C.), and the results are shown in FIG. 3. In FIG. 3, the top pattern A-1 was obtained on a sample of the Type II ethylenediamine salt maintained at atmospheric pressure and at about 25° prior to measuring the XRPD reflections. The pattern A-2 was obtained from a sample of the Type II ethylenediamine salt which was heated at 80° C. under reduced pressure for 15 hours prior to measuring the XRPD reflections.
The bottom pattern B-1 was obtained on a sample of the Type I ethylenediamine salt which was maintained at atmospheric pressure and at about 25° prior to measuring the XRPD reflections. The pattern B-2 was obtained from a sample of the Type I ethylenediamine salt which was heated at 80° C. under reduced pressure for 15 hours prior to measuring the XRPD reflections.
XRPD data were recorded with a Rigaku Miniflex II powder diffractometer (The Woodlands, Tex.). The radiation was CuKa (30 kV, 15 mA). Data were collected at 25° C. from 3 to 35 degrees 2θ at 0.02 degrees per step and 1.67 sec per step. Samples were prepared on Silicon (510) specimen holders as a thin layer of powdered material without solvent.

[2] = Dynamic vapor sorption (water sorption/desorption); type: physicochemical; conditions: for hygroscopicity (in words): DVS; for moisture gain / water uptake: 85% relative humidity
Experimental: Water sorption/desorption profiles: Water sorption/desorption profiles of the Type II ethylenediamine salt are shown in FIG. 6. […] A similar water sorption/desorption study was carried out on the Type I ethylenediamine salt (FIG. 7). […] The sorption of water caused a form change in the Type I ethylenediamine salt which was observed using XRPD analysis.
Vapor sorption/desorption was carried out using Surface Measurement Systems DVS-HT. Samples were placed into a foil insert placed on a sample pan. […] The equilibrium point of each step was reached when 0.002% of weight change was reached.

[3] = cited from earlier work
[4] = DSC and TGA thermal events / weight loss at elevated temperature; type: physicochemical
Experimental: Weight loss at elevated temperature: Differences in thermal characteristics between the Type I and Type II ethylenediamine salts were also observed using differential scanning calorimetry (DSC), thermal gravimetric analysis (TGA) and dynamic vapor sorption (DVS) studies.
DSC and TGA thermograms of the Type II ethylenediamine salt (FIG. 4) indicate minimal loss of residual solvent up to 100° C. (about 0.16% which is controllable by more thorough drying). […] A first endothermic peak appears at about 192° C. with about 5.6% of total weight loss in TGA at corresponding temperature region (140° C. to 210° C.). This weight loss corresponds roughly to the theoretical weight loss (5.99 wt %) of ethylenediamine from the ethylenediamine salt of the compound of formula (I) (which contains 0.50 molar equivalents of ethylenediamine). […] The following endothermic peak is shown at 232° C. which is similar to the melting point of the free-acid form of the compound of formula (I).
There is about 3.8% weight loss at 20° C. to 70° C., which corresponds to the loss of water. A major endotherm at 118° C. to 134° C. corresponds to the melting of the ethylenediamine salt with volatilization, corresponding to the loss of ethanol and some ethylenediamine (about 4.4%). Further loss of ethylenediamine occurs at about 147° C. to 160° C. Above 165° C., melting and decomposition of the free-acid of the compound of formula (I) take place.
DSC was carried out using TA Instruments Q1000 Differential Scanning Calorimeter. Samples were placed in sealed aluminum pans for analysis with an empty aluminum pan as the reference. A heating rate of 10° C./min was employed over a temperature range from 20° C. to 300° C.
TGA was carried out using TA Instruments Q500 Thermogravimetric analyzer. Samples were placed into an platinum sample pan. A heating rate of 10° C./min was employed over a temperature range from 25° C. to 300° C.

Row | Compound | change in crystallinity (XRPD) as a result of heat treatment [1] | hygroscopicity (in words) ([2]; 25° C.) | water uptake ([2]; 70% relative humidity, 25° C.) [%] | moisture gain / water uptake ([2]; 25° C.) | effect of water sorption on solid form (XRPD) ([2]; after sorption of water) | weight loss in thermogravimetric analysis (attributed to loss of ethanol) ([3]; from 125° C. to 150° C.) | weight loss in thermogravimetric analysis ([3]; from about 30° C. to about 75° C.) | thermal behavior in DSC and TGA thermograms [4] | weight loss (loss of water) ([4]; 20° C. to 70° C.) | Onset of event: Loss of water ([4]; DSC/TGA, 10° C./min) [°C] | Onset of event: Melting and loss of ethanol and ethylenediamine ([4]; DSC/TGA, 10° C./min) [°C] | Onset of event: Melting of the free-acid of compound of formula (I) ([4]; DSC/TGA, 10° C./min) [°C] | weight loss (loss of ethanol and some ethylenediamine) ([4]; major endotherm at 118° C. to 134° C.) | thermal stability compared with the other polymorph (XRPD study) ([1]; 80° C. heat treatment) | proneness to hydration compared with the other polymorph [2] | total weight loss in TGA (loss of ethylenediamine) ([4]; 140° C. to 210° C., first endothermic peak at about 192° C.) | Onset of event: Melting and loss of ethylenediame ([4]; DSC/TGA, 10° C./min) [°C] | loss of residual solvent (TGA) ([4]; up to 100° C.)
1 | CN(C)c1nc(Cc2ccc(NC(=O)c3ccc(C(F)(F)F)cc3)cc2)nc(N(C)C)c1CC(=O)O [Type I ethylenediamine salt, ethylenediamine salt of [4,6-bis(dimethylamino)-2-(4-{[4-(trifluoromethyl)benzoyl]amino}benzyl)pyrimidin-5-yl]acetic acid] | significant change in the crystallinity | significant moisture sorption | ~6 | ~7% | form change | larger weight loss | slight weight loss | unstable thermal behavior | about 3.8% | 30 | 120 | 210 | about 4.4% |  |  |  |  | 
2 | CN(C)c1nc(Cc2ccc(NC(=O)c3ccc(C(F)(F)F)cc3)cc2)nc(N(C)C)c1CC(=O)O [Type II ethylenediamine salt, ethylenediamine salt of [4,6-bis(dimethylamino)-2-(4-{[4-(trifluoromethyl)benzoyl]amino}benzyl)pyrimidin-5-yl]acetic acid] | no noticeable change in the crystallinity | non-hygroscopic |  | about 0.08% |  |  |  |  |  |  |  | 225 |  | more thermally stable | less prone to hydration | about 5.6% | 160 | about 0.16%
